# System: MBT-2 tumor
# Test: MBT-2 syngeneic tumor model
# Format: in vivo
# Settings: MBT-2 in C3H mice, oral BID, FIG. 7A
# Experimental: To test potential immunomodulatory activity of Compound 1 in vivo, antitumor efficacy studies were performed in syngeneic tumor models.
# MBT-2 cells were obtained from the Japanese Collection of Research Bioresources Cell Bank and were maintained in DMEM supplemented with 10% FBS. MC38 cells were obtained from the NCI. 4T1 cells were obtained from ATCC and maintained in RPMI media supplemented with 10% FBS. For MBT-2 experiments, 5×10^5 MBT-2 cells were inoculated subcutaneously into the right hind flank of 6- to 8-week-old C3H mice or athymic nude mice (Charles River Laboratories, Wilmington, Mass.). For MC38 studies, 12-week old female C57BL/6 mice were inoculated with brei of MC38 tumors (in-vivo passage 6) into the right hind flank. For 4T1 studies, 7.5×10^5 4 T1 cells were inoculated subcutaneously into the right hind flank of 6- to 8-week-old female BALB/c mice or athymic nude mice (Charles River Laboratories). […] Mice were monitored for tumor growth and overt tolerability over the course of the experiment. […] Tumor volume was calculated using the formula (L×W^2)/2, where L and W refer to the length and width dimensions, respectively. Tumor growth inhibition (TGI) was calculated using the formula (1−(VT/VC))×100, where VT is the tumor volume of the treatment group on the last day of treatment, and VC is the tumor volume of the control group on the last day of treatment. […]
smiles,measurement,value
"CC(C)C(=O)N1CCC(c2cc(-c3ccc(NC(=O)c4cn(C(C)C)c(=O)n(-c5ccccn5)c4=O)cc3)c3c(N)ncnn23)CC1 [Compound 1, N-(4-(4-Amino-7-(1-isobutyrylpiperidin-4-yl)pyrrolo[1,2-f][1,2,4]triazin-5-yl)phenyl)-1-isopropyl-2,4-dioxo-3-(pyridin-2-yl)-1,2,3,4-tetrahydropyrimidine-5-carboxamide]",antitumor efficacy (tumor volume),dose-dependent efficacy
